The values that follow come from US8784860B2 (Cordis Corporation, priority 2005, dated 2014).

Entries after “also recorded” stand apart in the source; their conditions may differ.

One data set has as its system cell viability. As to the kind of experiment: Cell viability assay. It is filed as cell-based. From the text: (§1) The multiple curves represent various concentrations of topotecan ranging from zero to three hundred nanomolar concentrations.
(§2) The multiple curves represent various concentrations of etoposide ranging from zero to eight hundred nanomolar concentrations.

Data set [1] deals with human coronary artery smooth muscle cells. As to the kind of experiment: Anti-proliferative activity in synchronized cultured coronary artery smooth muscle cells, two percent fetal bovine serum. In kind it is cell-based.
Text: as §1, §2
Referring to FIG. 66, there is illustrated, in graphical format, the anti-proliferative activity of Panzem® in synchronized cultured human coronary artery smooth muscle cells stimulated with two percent fetal bovine serum.
The multiple curves represent various concentrations of Panzem® ranging from zero to 100 micromolar concentrations.

Data set [2] in a line: Porcine pharmacokinetics studies: in vivo release kinetics from stent coatings. As to conditions: for drug remained in the drug coating: after eight (8) days of implantation, porcine, single layer sirolimus + cilostazol in EVA/BMA, 100 μg BMA overcoat (FIG. 83).
Text: The topcoat is two hundred micro grams.
FIG. 61 is a graphical representation of the in vivo release kinetics of cladribine from a polymeric coating on Bx Velocity® stents, available from Cordis Corporation, implanted in a Yorkshire pig. The basecoat comprises an 85/15 ratio of PVDF and HFP and cladribine for a total combined weight of one thousand eight hundred micrograms (cladribine comprising thirty percent of the total weight). The topcoat comprises an 85/15 ratio of PVDF/HFP and no cladribine. The total weight of the topcoat is three hundred micrograms.
(§3) The basecoat is applied to Bx Velocity® stents and implanted into Yorkshire pigs.
as §3
Another critical parameter for the performance of the thrombus resistance of a device coated with cilostazol is the duration of the drug release from the coating. This is of particular significance in the two weeks after device implantation. […] The purpose of the porcine PK study is to assess the local pharmacokinetics of a drug eluting stent at a given implantation time. Normally three stents are implanted in three different coronary arteries in a pig for a given time point and then retrieved for total drug recovery analysis. The stents are retrieved at predetermined time points; namely, 1, 3 and 8 days. The stents are extracted and the total amount of drug remaining on the stents is determined by analysis utilizing HPLC (high performance liquid chromatography) for total drug amount. The difference between the original amount of drug on the stent and the amount of drug retrieved at a given time represents the amount of drug released in that period. The continuous release of drug into surrounding arterial tissue is what prevents the neointimal growth and restenosis in the coronary artery. A normal plot represents the percentage of total drug released (%, y-axis) vs. time of implantation (day, x-axis). […] Curve 8102 represents cilostazol and curve 8104 represents sirolimus. […] In this exemplary configuration, the stent 8300 is coated with two layers. The first layer 8302 comprises a combination of sirolimus, cilostazol and a copolymer matrix of EVA/BMA. The second layer or diffusion overcoat 8304 comprises only BMA. More specifically, in this embodiment, the first layer 8302 comprises a combination of sirolimus and cilastazol that is forty-five (45) percent by weight of the total weight of the first layer 8302 and an EVA/BMA copolymer matrix that is fifty-five (55) percent by weight of the total weight of the first layer 8302. The diffusion overcoat comprises one hundred (100 μg) micrograms of BMA.

Data set [3] has as its system human coronary artery smooth muscle cell. As to conditions: concentrations 6.6 nanomolar up to 30,000.00 nanomolar. From the text:
In vitro cytotoxicity tests or assays may be utilized to determine if drugs, agents and/or compounds are potentially toxic and the level of toxicity. Essentially, in vitro cytotoxicity assays determine acute necrotic effects by a drug causing direct cellular damage. The idea behind these assays is that toxic chemicals affect basic functions of cells which are common to all cells. […] There are a number of different assays that may be utilized. In the present invention, the cytotoxicity assay utilized is based upon the measurement of cellular metabolic activity. A reduction in metabolic activity is an indication of cellular damage. Tests that can measure metabolic function measure cellular ATP levels or mitochondrial activity via MTS metabolism. FIG. 69 is a graphical representation of the results of an MTS assay of Panzem®.

Data set [4] concerns human coronary artery smooth muscle cells. In words: Anti-proliferative activity in non-synchronized cultured coronary artery smooth muscle cells, two percent fetal bovine serum. It is filed as cell-based. From the text: The multiple curves represent various concentrations of mycophenolic acid ranging from zero to one thousand nanomolar concentrations.
FIG. 58 illustrates, in graphical format, the anti-proliferative activity of cladribine in non-synchronized cultured human coronary artery smooth muscle cells stimulated with two percent fetal bovine serum.
The multiple curves represent various concentrations of cladribine ranging from zero to nine hundred nanomolar concentrations.

Data set [5] is described as follows: In vitro release kinetics from stent coatings. In kind it is physicochemical. As to conditions: for in vitro release rate of cladribine, effect of topcoat: twenty-five percent ethanol/water, room temperature.
In data set [6] the test system is human smooth muscle cells. In words: Cladribine Example: PDGF-stimulated proliferation of smooth muscle cells. In kind it is cell-based. The following applies: from IC50 values 23 and 40 nanomolar. As to the method:
To assess the ability of cladribine to prevent cell proliferation, human smooth muscle or endothelial cells (Clonetics, Walkersville, Md.) were seeded at a density of 2000 cells/cm^2 (approximately 3600 cells/well) into each well of 12-well plates and cultured with 1.5 ml of growth medium containing five percent fetal calf serum (FCS). After twenty-four hours, the growth medium was changed and fresh medium containing 10 ng/ml platelet-derived growth factor AB (PDGF AB; LIFE Technologies), as well as various concentrations of cladribine (0.001-10,000 nM) were added with triplicate wells. Medium was replaced with fresh cladribine-containing medium after three days. On day six, cells were detached by trypsinization to yield a cell suspension, lightly centrifuged to pellet and then counted manually using a Neubauer hemocytometer system. Cell viability was assessed by trypan blue exclusion.

For data set [7], the system named is human coronary artery smooth muscle cell. In words: In vitro cell culture study of coronary artery smooth muscle cell proliferation (trichostatin A). In kind it is cell-based. From the text: FIG. 51 is a graph of the inhibition of coronary artery smooth muscle cells by trichostatin A in a cell culture study.
The next data set relates to tumor cell lines. The following applies: tumor cell lines (Woo et al., 2002); cited from earlier work.
Another data set concerns bovine blood. As to the kind of experiment: In vitro bovine blood loop model (In 111 labeled platelets). As to conditions: sirolimus/cilostazol coated stents versus control. From the text: The anti-thrombotic efficacy of the above-described three configurations is illustrated in FIG. 80. FIG. 80 illustrates the anti-thrombotic properties of the sirolimus/cilostazol combination coatings described above in an in vitro bovine blood loop model. In the in vitro bovine blood loop model, fresh bovine blood is heparinized to adjust for acute clotting time (ACT) of about two hundred (200) seconds. The platelet content in the blood is labeled through the use of Indium 111. In the study, a stent is deployed in a silicone tube, which is part of a closed loop system for blood circulation. The heparinzed blood is circulated through the closed loop system by means of a circulating pump. Blood clots and thrombus builds up on a stent surface over time and reduces the flow rate of blood through the stented loop. […] The control drug eluting stent is the Cypher® sirolimus eluting coronary stent available from Cordis Corporation. Bar 8004 is a stent coated with heparin and is available from Cordis Corporation under the […]® on the Bx Velocity® coronary stent trademark. Bar 8006 is a stent configured as set forth with respect to the architecture illustrated in FIG. 75. Bar 8008 is a stent configured as set forth with respect to the architecture illustrated in FIG. 77. Bar 8010 is a stent configured as set forth with respect to the architecture illustrated in FIG. 79.

A short description of data set [8]: Liquid formulations: drug concentration by liquid chromatography and visual observation. In kind it is physicochemical. As to conditions: water, ethanol less than two percent, Vitamin E TPGS.
Protocol: The concentrations of each constituent were determined by liquid chromatography and are presented as weight by volume figures.
The liquid formulation was created utilizing the following process. Two hundred milligrams of sirolimus and two grams of ethanol were added to a pre-weighed twenty milliliter scintillation vial. The vial was vortexed and sonicated until the sirolimus was completely dissolved. Approximately six hundred milligrams of Vitamin E TPGS was then added to the solution of ethanol and sirolimus. The vial was vortexed again until a clear yellowish solution was obtained. Nitrogen gas was then used to reduce the amount of ethanol in the vial to approximately two hundred twenty-nine milligrams. In a separate vial, three hundred milligrams of Vitamin E TPGS was dissolved in eleven milliliters of purified water while undergoing vortexing. The Vitamin E TPGS and water solution was then added to the first vial containing the sirolimus, Vitamin E TPGS and ethanol. The first vial was then vortexed vigorously and continuously for three minutes.
In another exemplary embodiment, a liquid formulation of CCI-779, a sirolimus analog, is prepared utilizing ethanol, Vitamin E TPGS and water. This liquid formulation was made under similar conditions as to that described above. […]
The mark [9] stands for this setting: 600 μg EVA/BMA basecoat with 30% rapamycin and 30% mycophenolic acid, no, 100 or 200 μg BMA topcoat.

In the case of `COc1cc([C@@H]2c3cc4c(cc3[C@@H](O[C@@H]3O[C@@H]5CO[C@@H](C)O[C@H]5[C@H](O)[C@H]3O)[C@H]3COC(=O)[C@H]23)OCO4)cc(OC)c1O` [etoposide], the “cytotoxicity in cell viability assay” value in the data set on cell viability (concentrations up to ten micromolar) is listed as “non-cytotoxic”. In addition, in data set [1] (etoposide 255.7 to eight hundred nanomolar added to rapamycin), the “effect of etoposide on the anti-proliferative rapamycin dose response curves” value is given as “potentiate the anti-proliferative activity of rapamycin; also recorded: increases the percent inhibition of rapamycin alone”.
For `CO[C@H]1C[C@@H]2CC[C@@H](C)[C@@](O)(O2)C(=O)C(=O)N2CCCC[C@H]2C(=O)O[C@H]([C@H](C)C[C@@H]2CC[C@@H](O)[C@H](OC)C2)CC(=O)[C@H](C)/C=C(\C)[C@@H](O)[C@@H](OC)C(=O)[C@H](C)C[C@H](C)/C=C/C=C/C=C/1C` [rapamycin], in data set [2] (setting [9]), the “in vivo release of rapamycin, effect of topcoat” value is “BMA topcoat does slow the release of rapamycin”. In addition, the “in vivo release rates of rapamycin from three rapamycin/cladribine coatings” value in [2] (600 μg EVA/BMA basecoats with varied rapamycin/cladribine loads, 200 μg BMA topcoat, Yorkshire pigs) is listed as “substantially similar to one another”. Moreover, the “in vivo release rate of rapamycin compared with mycophenolic acid” value in data set [2] (600 μg PVDF basecoat, 200 μg PVDF topcoat) is listed as “slower release rate than that of mycophenolic acid”. In addition, the “drug remained in the drug coating” value in data set [2] is reported as about 80%.
As to `COc1cc2c(cc1O)CC[C@@H]1[C@@H]2CC[C@]2(C)[C@@H](O)CC[C@@H]12` [Panzem®, 2-methoxyestradiol], the “cytotoxicity, MTS assay” value in data set [3] is given as “do not reduce human coronary artery smooth muscle cell survival”. In [1] (Panzem 0.813 to 100 micromolar added to rapamycin), the “effect of Panzem on the anti-proliferative activity of rapamycin” value is listed as “potentiation of rapamycin by Panzem®; also recorded: increases the percent of inhibition of rapamycin alone”. Besides, the “anti-proliferative activity (single agent)” value in data set [1] (synchronized human coronary artery smooth muscle cells, two percent fetal bovine serum) was “extremely effective inhibitor of human coronary artery smooth muscle cell proliferation in vitro”.
In the case of `Nc1nc(Cl)nc2c1ncn2[C@H]1C[C@H](O)[C@@H](CO)O1` [cladribine, 2-chlorodeoxyadenosine], the “in vivo elution of cladribine” value in data set [2] (Bx Velocity stent, Yorkshire pig, 1800 μg PVDF/HFP (85/15) basecoat with 30% cladribine, 300 μg topcoat) was “after the first day, the elution of cladribine levels off significantly”. Further, the “in vivo elution of cladribine compared with rapamycin” value in data set [2] (EVA/BMA basecoat, 200 μg BMA topcoat, Yorkshire pigs) is recorded as “elutes more rapidly than rapamycin”. In data set [4] (cladribine 56.25 to 900 nanomolar added to rapamycin), the “effect of cladribine on the anti-proliferative rapamycin dose response curves” value is reported as “potentiate the anti-proliferative activity of rapamycin; also recorded: increases the percent inhibition of rapamycin alone”. The “inhibition of human coronary artery smooth muscle cell proliferation” value in data set [4] (non-synchronized cells, two percent fetal bovine serum) is listed as “completely inhibits”. The “in vitro release rate of cladribine, effect of topcoat” value is recorded as “increase in topcoat weight or thickness led to a decrease in the release rate of cladribine” in data set [5] (non-sterile PVDF/HFP (85/15) coatings) and “drastic decrease of release rate of cladribine” in [5] (sterile PVDF/HFP coating). The “potency as inhibitor of smooth muscle cells relative to endothelial cells” value in data set [6] was “approximately twice”.
Consider `CC(/C=C/C(=O)NO)=C\[C@@H](C)C(=O)c1ccc(N(C)C)cc1` [trichostatin A], for which, in data set [7], the “inhibition of human coronary artery smooth muscle cell proliferation” value is “completely inhibit”. For the same molecule, in [7] (human coronary artery smooth muscle cells, read-out: anti-proliferative IC50), the IC50 (commonly the concentration at which inhibition is half-maximal) was about 6 nM. For the same molecule, the “anti-proliferative IC50's” value in the data set on tumor cell lines was “low nM range”.
Turning to `O=C1CCc2cc(OCCCCc3nnnn3C3CCCCC3)ccc2N1` [cilostazol, 6[4-(1-cyclohexyl-1H-tetrazol-5-yl)-butoxy]-3,4-dihydro-2-(1H)-quinolinone], the “drug remained in the drug coating” value in data set [2] is given as about 80%. For the same molecule, the thrombus formation entry in the data set with bovine blood is “significantly reduces thrombus formation”. Further, the “in vitro drug release rate, 200 μg versus 100 μg BMA diffusion overcoat” value in [5] (layered sirolimus/cilostazol coatings of FIGS. 75 and 77) was “comparatively slower from the configuration comprising the thicker diffusion overcoat of BMA”. The in vitro release in [5] (single layer sirolimus + cilostazol in EVA/BMA, 100 μg BMA overcoat (FIG. 83)) is given as about 35%.
Consider `CO[C@H]1C[C@@H]2CC[C@@H](C)[C@@](O)(O2)C(=O)C(=O)N2CCCC[C@H]2C(=O)O[C@H]([C@H](C)C[C@@H]2CC[C@@H](OC(=O)C(C)(CO)CO)[C@H](OC)C2)CC(=O)[C@H](C)/C=C(\C)[C@@H](O)[C@@H](OC)C(=O)[C@H](C)C[C@H](C)/C=C/C=C/C=C/1C` [CCI-779], for which the “concentration of CCI-779 in the final solution (HPLC)” value in data set [8] was 15000 µg/mL.
As to `CC[C@@]1(O)C(=O)OCc2c1cc1n(c2=O)Cc2cc3c(CN(C)C)c(O)ccc3nc2-1` [topotecan], in the data set with cell viability (concentrations up to one micromolar), the “cytotoxicity in cell viability assay” value is reported as “non-cytotoxic”. In data set [1] (topotecan 18.8 to 300 nanomolar added to rapamycin), the “effect of topotecan on the anti-proliferative rapamycin dose response curves” value is on record as “potentiate the anti-proliferative activity of rapamycin; also recorded: increases the percent inhibition of rapamycin alone”.
Turning to `COc1c(C)c2c(c(O)c1C/C=C(\C)CCC(=O)O)C(=O)OC2` [mycophenolic acid], the “in vivo release of mycophenolic acid, effect of topcoat” value in data set [2] (setting [9]) is “BMA topcoat does slow the release of mycophenolic acid”. Moreover, the “in vivo elution of mycophenolic acid compared with rapamycin” value in [2] (EVA/BMA basecoat, BMA topcoat) is given as “elutes more completely over a shorter duration than the rapamycin”. Also, in data set [4] (mycophenolic acid zero to one thousand nanomolar added to rapamycin), the “effect of mycophenolic acid on the anti-proliferative rapamycin dose response curve” value is reported as “potentiates the anti-proliferative activity of rapamycin”.
